Results filed as inconclusive are left out. Active and inactive are the calls of the source.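 Rule for the calls: active = Normal-ribosome green reporter loss at least double humanized-ribosome red reporter loss, with overall culture growth inhibition under a set limit; inconclusive = no clear call, values can overlap the other calls; inactive = the rest.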
System: E. coli wild-type GFP growth, mixed culture, 24 h
Test: E. coli growth inhibition, wild-type GFP versus H38 humanized RFP strain – H38 mutant RFP vs wild-type GFP, cherry-pick, dose response (AID 977630)
[1] = E. coli mixed culture total OD600 growth, 24 h

Question: How did the AC50 turn out when `O=C1c2ccccc2C(c2nnnn2C2CCCCC2)N1CCc1ccc(O)cc1` (stereo unspecified) was run?
Answer: The AC50 was > 100 µM (inactive).

Question: And the AC50 [1]?
Answer: The AC50 was greater than 100 µM.

Question: `O=C(COC(=O)C1CC1)Nc1nc(-c2ccc(F)c(F)c2)cs1` was tested. Which AC50 did it give?
Answer: Its AC50 is > 100 µM (inactive).

Question: How did the AC50 turn out when `COc1ccc(N(C)S(=O)(=O)c2cccc(C(=O)NC3CCCCC3C)c2)cc1` (stereo unspecified) was run?
Answer: The AC50 was > 100 µM (inactive).

Question: With `O=S(=O)(NCc1ccc2c(c1)OCO2)c1ccc2c(c1)oc1ccccc12` as the compound, how does the AC50 read?
Answer: Its AC50 is > 100 µM (inactive).

Question: And the AC50 [1]?
Answer: The AC50 was 27.2 µM.

Question: What does the source list for `CC(=O)c1c(C)nn(CC(O)COc2ccc3c(c2)CCC3)c1C` (stereo unspecified)?
Answer: AC50: > 100 µM (inactive); AC50 [1]: > 100 µM

Question: For `Cc1ccc(-c2nc3ccc(NS(=O)(=O)c4ccccc4)cc3[nH]2)o1`, which AC50 is on record?
Answer: Its AC50 is > 100 µM (inactive).

Question: What about the AC50 [1] of the same compound?
Answer: The AC50 was 33.6 µM.

Question: How did the AC50 turn out when `CN(c1ccccc1)S(=O)(=O)c1cccc(NC(=O)CCNC(=O)c2ccc([N+](=O)[O-])cc2)c1` was run?
Answer: The AC50 was > 100 µM (inactive).

Question: And the AC50 [1]?
Answer: The AC50 was greater than 100 µM.

Question: `Cc1noc(C)c1COc1cccc(C(=O)N2CCc3ccccc32)c1` was tested. Which AC50 did it give?
Answer: Its AC50 is > 100 µM (inactive).

Question: `Cc1ccc(-c2nc(CN3CCCCC3c3cccc(F)c3)c(C)o2)o1` (stereo unspecified) was tested. Which AC50 did it give?
Answer: The AC50 was > 100 µM (inactive).

Question: How did the AC50 turn out when `CCNC(=O)C1(C)CCCN(Cc2cccc3ccccc23)C1` (stereo unspecified) was run?
Answer: Its AC50 is > 100 µM (inactive).

Question: `COc1cc(OC)cc(C(=O)Nc2ccc(C(=O)Nc3ccccc3OC)cc2)c1` was tested. Which AC50 did it give?
Answer: The AC50 was > 100 µM (inactive).

Question: With `COc1ccc(NC(=O)CN(c2ccccc2OC)S(=O)(=O)c2cccs2)cc1Cl` as the compound, how does the AC50 read?
Answer: The AC50 was > 100 µM (inactive).

Question: For `Cc1ccc(SCC(=O)Nc2ccc(S(=O)(=O)Nc3nccs3)cc2)cc1`, which AC50 is on record?
Answer: Its AC50 is > 100 µM (inactive).

Question: With `Cc1ccccc1Nc1c(-c2cccnc2)nc2ccc(Br)cn12` as the compound, how does the AC50 [1] read?
Answer: Its AC50 is greater than 100 µM.

Question: Which AC50 does the source give for `O=C(COc1ccccc1Cl)Nc1nc(-c2ccncc2)cs1` here?
Answer: The AC50 was > 100 µM (inactive).

Question: With `Nc1ccccc1Nc1ccc([N+](=O)[O-])cc1[N+](=O)[O-]` as the compound, how does the AC50 read?
Answer: Its AC50 is > 100 µM (inactive).

Question: For `O=C(CCC1CCCN(C(=O)c2ccsc2)C1)N1CCN(c2ccccn2)CC1` (stereo unspecified), which AC50 is on record?
Answer: Its AC50 is > 100 µM (inactive).

Question: For `COc1ccccc1CNC(=O)CN1C(=O)NC(c2ccccc2)(c2ccccc2)C1=O`, which AC50 is on record?
Answer: The AC50 was > 100 µM (inactive).

Question: What about the AC50 [1] of the same compound?
Answer: Its AC50 is greater than 100 µM.

Question: What does the source list for `CCCNc1ccc(C(=O)OCC)cc1[N+](=O)[O-]`?
Answer: AC50: > 100 µM (inactive); AC50 [1]: > 100 µM

Question: Which AC50 does the source give for `COC(=O)c1ccc2nc(-c3ccc(OC)c(OC)c3)c(Cc3ccc(C)cc3)n2c1` here?
Answer: The AC50 was > 100 µM (inactive).

Question: Which AC50 [1] does the source give for `CSc1ccc(CN(C)CC(=O)NC(C)c2ccccc2)cc1` (stereo unspecified) here?
Answer: The AC50 was greater than 100 µM.

Question: For `Cc1[nH]nc2c1C(c1ccc(F)cc1)N(Cc1ccccc1)C2=O` (stereo unspecified), which AC50 is on record?
Answer: Its AC50 is > 100 µM (inactive).

Question: What about the AC50 [1] of the same compound?
Answer: The AC50 was greater than 100 µM.

Question: With `COc1ccc(C2CC(c3cccs3)=Nc3ccccc3S2)cc1` (stereo unspecified) as the compound, how does the AC50 [1] read?
Answer: Its AC50 is greater than 100 µM.

Question: How did the AC50 turn out when `O=C(Nc1ccc2nc(-c3cccnc3)[nH]c2c1)c1ccco1` was run?
Answer: The AC50 was > 100 µM (inactive).

Question: `CC(=O)Nc1ccc(-c2ccnc3c2CC(C)(C(=O)Nc2ccc4c(c2)OCO4)O3)cc1` (stereo unspecified) was tested. Which AC50 did it give?
Answer: Its AC50 is > 100 µM (inactive).

Question: `CCOC(=O)c1ccc(NC(=O)c2ccc(OC(C)C)c(OC)c2)cc1` was tested. Which AC50 [1] did it give?
Answer: Its AC50 is greater than 100 µM.

Question: How did the AC50 turn out when `Cc1ccc(-c2cc(-c3ccc(C)cc3)[n+](-c3ccc(C(=O)[O-])cc3)c(-c3ccc(C)cc3)c2)cc1` was run?
Answer: The AC50 was > 100 µM (inactive).

Question: Which results are given for `O=c1[nH]nc(SCc2ccccc2)n1C1CC2C=CC1C2` (stereo unspecified)?
Answer: AC50: > 100 µM (inactive); AC50 [1]: 49.8 µM

Question: Which AC50 does the source give for `O=S1(=O)N[C@H](Cc2ccccc2)COc2cccc(N3CCC[C@H]3CO)c21` here?
Answer: The AC50 was > 100 µM (inactive).

Question: `S=c1nc(-c2cc(Cl)cc(Cl)c2)[nH][nH]1` was tested. Which AC50 did it give?
Answer: Its AC50 is > 100 µM (inactive).

Question: For `Cc1cccc(C(=O)NCC(=O)N2CC=C(c3ccccc3)CC2)c1`, which AC50 is on record?
Answer: Its AC50 is > 100 µM (inactive).

Question: With `CCc1nc2ccccc2n1CCc1ccccc1` as the compound, how does the AC50 read?
Answer: The AC50 was > 100 µM (inactive).

Question: `COc1cccc(CC(=O)OC(C)C(=O)NCc2ccc3c(c2)OCO3)c1` (stereo unspecified) was tested. Which AC50 did it give?
Answer: The AC50 was > 100 µM (inactive).

Question: `CCOc1ccc(OCCn2c(=S)[nH]c3c(N)ncnc32)cc1` was tested. Which AC50 did it give?
Answer: Its AC50 is > 100 µM (inactive).

Question: How did the AC50 turn out when `CC(=O)Nc1ccc(CNc2nc(NCCN(C)C)nc3cc(-c4ccccc4)sc23)cc1` was run?
Answer: The AC50 was > 100 µM (inactive).

Question: `Cc1ccc(S(=O)(=O)Nc2ccccc2CNc2cccc(C)n2)cc1` was tested. Which AC50 did it give?
Answer: Its AC50 is > 100 µM (inactive).

Question: Which AC50 [1] does the source give for `S=c1nc(-c2cccc(Br)c2)[nH][nH]1` here?
Answer: Its AC50 is greater than 100 µM.

Question: Which results are given for `CCOc1ccc2nc(SCC(=O)Nc3nonc3C)[nH]c2c1`?
Answer: AC50: > 100 µM (inactive); AC50 [1]: > 100 µM

Question: What does the source list for `Cc1nc(SCC(=O)Nc2ccc3c(c2)OCCO3)nc(C)c1C`?
Answer: AC50: > 100 µM (inactive); AC50 [1]: > 100 µM

Question: With `Cc1ccsc1C(=O)OCC(=O)N1CCc2ccccc2C1` as the compound, how does the AC50 read?
Answer: Its AC50 is > 100 µM (inactive).

Question: With `COc1ccc(NC(=O)c2cccs2)cc1C(=O)N1CCN(c2ccccc2)CC1` as the compound, how does the AC50 read?
Answer: Its AC50 is > 100 µM (inactive).

Question: `Cc1cc(CNC(=O)c2cc(-c3ccccc3)nc3ccccc23)nn1C` was tested. Which AC50 did it give?
Answer: The AC50 was > 100 µM (inactive).

Question: `COc1cccc(-c2ccc(NC(=O)C3CCCN(Cc4cnn(C(C)C)c4)C3)cc2)c1` (stereo unspecified) was tested. Which AC50 [1] did it give?
Answer: Its AC50 is greater than 100 µM.

Question: For `COCC#Cc1ccc2c(c1)O[C@@H](CN(C)S(=O)(=O)c1cccc(F)c1)[C@@H](C)CN([C@H](C)CO)S2(=O)=O`, which AC50 [1] is on record?
Answer: The AC50 was greater than 100 µM.

Question: How did the AC50 turn out when `Cc1cc(C)n(CC(O)COc2ccc3ccccc3c2)n1` (stereo unspecified) was run?
Answer: Its AC50 is > 100 µM (inactive).

Question: What about the AC50 [1] of the same compound?
Answer: The AC50 was greater than 100 µM.

Question: How did the AC50 turn out when `Cc1nnn(C23CC4CC(CC(CC(=O)Nc5ccc(C)c(C)c5)(C4)C2)C3)n1` was run?
Answer: The AC50 was > 100 µM (inactive).

Question: With `Cc1nn(-c2cccc(Cl)c2)nc1C(=O)O` as the compound, how does the AC50 read?
Answer: The AC50 was > 100 µM (inactive).

Question: Which results are given for `CC(=O)OC(COc1cccc(C)c1)Cn1cnc2ccccc21` (stereo unspecified)?
Answer: AC50: > 100 µM (inactive); AC50 [1]: > 100 µM

Question: How did the AC50 turn out when `O=C(c1ccc(-n2cccn2)cc1)N1CCc2ccccc2C1` was run?
Answer: Its AC50 is > 100 µM (inactive).

Question: Which results are given for `Cc1noc(NS(=O)(=O)c2ccc(NC(=O)c3cc(-c4ccccc4Cl)nc4ccccc34)cc2)c1C`?
Answer: AC50: > 100 µM (inactive); AC50 [1]: > 100 µM

Question: For `Cc1ccc(NC(=O)COC(=O)CCNS(=O)(=O)c2c(Cl)cccc2Cl)cc1`, which AC50 [1] is on record?
Answer: The AC50 was greater than 100 µM.

Question: What does the source list for `COc1cccc(C(=O)Nc2nnc(S(=O)(=O)N(C)Cc3ccccc3)s2)c1`?
Answer: AC50: > 100 µM (inactive); AC50 [1]: 50.9 µM

Question: Which AC50 does the source give for `O=c1c2cc(Br)ccc2[nH]c(=S)n1Cc1ccccc1` here?
Answer: Its AC50 is > 100 µM (inactive).

Question: `O=C(O)c1ccc(Oc2ccc([N+](=O)[O-])cc2)c([N+](=O)[O-])c1` was tested. Which AC50 did it give?
Answer: Its AC50 is > 100 µM (inactive).

Question: With `Cc1cccc(C(=O)NCC(=O)NCCSc2ccc(Br)cc2)c1` as the compound, how does the AC50 read?
Answer: Its AC50 is > 100 µM (inactive).

Question: For `CC(=O)Nc1ccc(S(=O)(=O)Nc2cccc(-c3nc4cc(C)ccc4o3)c2)cc1`, which AC50 is on record?
Answer: The AC50 was > 100 µM (inactive).

Question: What about the AC50 [1] of the same compound?
Answer: The AC50 was greater than 100 µM.

Question: With `O=C(COc1cc(F)ccc1[N+](=O)[O-])NCCCc1ccccc1` as the compound, how does the AC50 read?
Answer: The AC50 was > 100 µM (inactive).

Question: How did the AC50 turn out when `O=C(CCCOc1ccc(Cl)cc1Cl)Nc1ccccc1C(=O)O` was run?
Answer: Its AC50 is > 100 µM (inactive).

Question: And the AC50 [1]?
Answer: The AC50 was greater than 100 µM.

Question: How did the AC50 turn out when `COc1cc2cc(C(=O)Nc3ccc4c(c3)OCCO4)[nH]c2cc1OC` was run?
Answer: Its AC50 is > 100 µM (inactive).

Question: And the AC50 [1]?
Answer: The AC50 was greater than 100 µM.

Question: How did the AC50 turn out when `CN(C)S(=O)(=O)c1ccc(Cl)c(C(=O)OCC(=O)NC(=O)c2cccn2C)c1` was run?
Answer: The AC50 was > 100 µM (inactive).

Question: `Cc1cccc(NC(=O)CN(C)S(=O)(=O)c2cccs2)c1` was tested. Which AC50 did it give?
Answer: The AC50 was > 100 µM (inactive).

Question: What does the source list for `O=C(COC(=O)C1CC2C=CC1C2)Nc1ccc([N+](=O)[O-])cc1` (stereo unspecified)?
Answer: AC50: > 100 µM (inactive); AC50 [1]: > 100 µM

Question: Which results are given for `CCCc1nc2oc3c(NCCCN(C)C)ncnc3c2c2c1CCCC2`?
Answer: AC50: > 100 µM (inactive); AC50 [1]: > 100 µM

Question: Which AC50 does the source give for `COc1ccc(OC)c(NC(=O)CN(C)CC(=O)Nc2ccccc2Br)c1` here?
Answer: Its AC50 is > 100 µM (inactive).

Question: With `Cc1cc(C(=O)COC(=O)CNC(=O)c2ccccc2)c(C)n1CC1CCCO1` (stereo unspecified) as the compound, how does the AC50 read?
Answer: The AC50 was > 100 µM (inactive).

Question: Which AC50 [1] does the source give for `COC(=O)c1ccsc1NC(=O)c1cccc(OC)c1` here?
Answer: Its AC50 is greater than 100 µM.

Reference: PubChem BioAssay AID977630 (Broad Institute, 2014)
